Source: US4256632A, “Novel derivatives of daunomycin” (Yeda Research and Development Co. Ltd., priority 1978, dated 1981)
Entries after “also recorded” stand apart in the source; their conditions may differ.

System: EL4 lymphoma
Test: Repeated treatments of mice bearing ip EL4 lymphoma
Assay type: in vivo, C57BL/6 mice
Design: Median survival time: unit not given here
Details: for Median survival time: mice that died of the tumor; for Antitumor (curing) effect in words: injected intraperitoneally at different intervals after tumor cell innoculation; for Relative effectivity among derivatives: comparison in words
Protocol: Four to six weeks old C57BL/6 mice were innoculated with the ascite lymphoma tumor EL4.BU. Daunomycin and its derivatives were injected intraperitoneally at different intervals after tumor cell innoculation.
Some of the mice were totally cured, with no physical manifestation of any side effects of the tested derivatized daunomycin compounds.
10^6 EL4 lymphoma cells were innoculated ip into C57BL/6 males. Drug
administration started 2 days later.
*Refers to the group of mice that died of the tumor.

COc1cccc2c1C(=O)c1c(O)c3c(c(O)c1C2=O)C[C@@](O)(C(C)=O)C[C@@H]3O[C@H]1C[C@H](NC(=O)[C@H](CCCCN)NC(=O)[C@H](CCCCN)NC(=O)[C@@H](N)CCCCN)[C@H](O)[C@H](C)O1 [(Lys)3 -DM, (lysyl)3 -daunomycin]
Long time survivors (over 60 days) (250 μg/mouse, 8 injections ip): 6 | Toxic deaths/No. mice treated (250 μg/mouse, 8 injections ip): 1/8 | Median survival time (250 μg/mouse, 8 injections ip): 25 | Antitumor (curing) effect in words: complete cure, or a significantly prolonged life span with no apparent toxic effects

COc1cccc2c1C(=O)c1c(O)c3c(c(O)c1C2=O)CC(O)(C(C)=O)CC3OC1CC(NC(=O)C(CCCNC(=N)N)NC(=O)C(N)CCCNC(=N)N)C(O)C(C)O1 (centres unmarked) [(arginyl)2 -daunomycin, arginyl-arginyl-daunomycin]
Antitumor (curing) effect in words: complete cure, or a significantly prolonged life span with no apparent toxic effects

COc1cccc2c1C(=O)c1c(O)c3c(c(O)c1C2=O)C[C@@](O)(C(C)=O)C[C@@H]3O[C@H]1C[C@H](NC(=O)C(N)Cc2ccc(O)c(O)c2)[C@H](O)[C@H](C)O1 (some centres unmarked) [DOPA-DM, dihydroxyphenylalanyl-daunomycin]
Long time survivors (over 60 days) (240 μg/mouse, 8 injections ip): 3 | Toxic deaths/No. mice treated (240 μg/mouse, 8 injections ip): 0/4 | Median survival time (240 μg/mouse, 8 injections ip): 28

COc1cccc2c1C(=O)c1c(O)c3c(c(O)c1C2=O)C[C@@](O)(C(C)=O)C[C@@H]3O[C@H]1C[C@H](N)[C@H](O)[C@H](C)O1 [Daunomycin, daunomycin]
Long time survivors (over 60 days) (20 μg/mouse, 5 injections ip): 1 | Toxic deaths/No. mice treated (20 μg/mouse, 5 injections ip): 1/8 | Median survival time (20 μg/mouse, 5 injections ip): 17 | Long time survivors (over 60 days) (20 μg/mouse, 6 injections ip): 0 | Toxic deaths/No. mice treated (20 μg/mouse, 6 injections ip): 4/8 | Median survival time (20 μg/mouse, 6 injections ip): 15 | Long time survivors (over 60 days) (25 μg/mouse, 4 injections ip): 0 | Toxic deaths/No. mice treated (25 μg/mouse, 4 injections ip): 2/8 | Median survival time (25 μg/mouse, 4 injections ip): 14.5 | Long time survivors (over 60 days) (25 μg/mouse, 5 injections ip): 1 | Toxic deaths/No. mice treated (25 μg/mouse, 5 injections ip): 2/8 | Median survival time (25 μg/mouse, 5 injections ip): 24.5 | Long time survivors (over 60 days) (30 μg/mouse, 4 injections ip): 2 | Toxic deaths/No. mice treated (30 μg/mouse, 4 injections ip): 4/8 | Median survival time (30 μg/mouse, 4 injections ip): 25 | Long time survivors (over 60 days) (40 μg/mouse, 1 injection ip): 0 | Toxic deaths/No. mice treated (40 μg/mouse, 1 injection ip): 2/8 | Median survival time (40 μg/mouse, 1 injection ip): 19 | Long time survivors (over 60 days) (40 μg/mouse, 4 injections ip): 0 | Toxic deaths/No. mice treated (40 μg/mouse, 4 injections ip): 4/8 | Median survival time (40 μg/mouse, 4 injections ip): 18 | Long time survivors (over 60 days) (50 μg/mouse, 2 injections ip): 0 | Toxic deaths/No. mice treated (50 μg/mouse, 2 injections ip): 2/8 | Median survival time (50 μg/mouse, 2 injections ip): 19 | Long time survivors (over 60 days) (60 μg/mouse, 1 injection ip): 0 | Toxic deaths/No. mice treated (60 μg/mouse, 1 injection ip): 6/8 | Median survival time (60 μg/mouse, 1 injection ip): 18 | Long time survivors (over 60 days) (80 μg/mouse, 1 injection ip): 0 | Toxic deaths/No. mice treated (80 μg/mouse, 1 injection ip): 8/8 | Median survival time (80 μg/mouse, 1 injection ip): 17 | Effects at high doses (doses exceeding 70 μg/mouse in a single injection, or lower doses in multiple injections): acute toxicity marked by a generally wasted appearance and death, to no efficient depression of the growing tumor | Antitumor (curing) effect in words: no satisfactory curing effects; also recorded: very narrow border-zone between excessive toxicity and poor curative efficiency

COc1cccc2c1C(=O)c1c(O)c3c(c(O)c1C2=O)C[C@@](O)(C(C)=O)C[C@@H]3OC1CC(NC(=O)C(N)CCN)C(O)C(C)O1.[Cl-].[Na+] (some centres unmarked) [Dbu-DM, diaminobutyryl-daunomycin]
Long time survivors (over 60 days) (650 μg/mouse, 8 injections ip): 12 | Toxic deaths/No. mice treated (650 μg/mouse, 8 injections ip): 0/14 | Median survival time (650 μg/mouse, 8 injections ip): 31 | Antitumor (curing) effect in words: complete cure, or a significantly prolonged life span with no apparent toxic effects

COc1cccc2c1C(=O)c1c(O)c3c(c(O)c1C2=O)C[C@@](O)(C(C)=O)C[C@@H]3O[C@H]1C[C@H](NC(=O)[C@@H](N)Cc2cnc[nH]2)[C@H](O)[C@H](C)O1 [histidyl-daunomycin]
Antitumor (curing) effect in words: complete cure, or a significantly prolonged life span with no apparent toxic effects

(lysyl)2 -daunomycin [(Lys)2 -DM]
Long time survivors (over 60 days) (250 μg/mouse, 8 injections ip): 6 | Toxic deaths/No. mice treated (250 μg/mouse, 8 injections ip): 1/8 | Median survival time (250 μg/mouse, 8 injections ip): 24 | Antitumor (curing) effect in words: complete cure, or a significantly prolonged life span with no apparent toxic effects

(ornithyl)2 -daunomycin [(Orn)2 -DM]
Long time survivors (over 60 days) (300 μg/mouse, 8 injections ip): 6 | Toxic deaths/No. mice treated (300 μg/mouse, 8 injections ip): 1/8 | Relative effectivity among derivatives: much more effective than with ornithine | Antitumor (curing) effect in words: complete cure, or a significantly prolonged life span with no apparent toxic effects

(ornithyl)n -daunomycin where n=2 to 5 [(Orn)5 -DM]
Long time survivors (over 60 days) (300 μg/mouse, 8 injections ip): 2 | Toxic deaths/No. mice treated (300 μg/mouse, 8 injections ip): 1/8 | Median survival time (300 μg/mouse, 8 injections ip): 38

arginyl-daunomycin [Arg-DM]
Long time survivors (over 60 days) (250 μg/mouse, 7 injections ip): 3 | Toxic deaths/No. mice treated (250 μg/mouse, 7 injections ip): 0/4 | Median survival time (250 μg/mouse, 7 injections ip): 35 | Long time survivors (over 60 days) (400 μg/mouse, 6 injections ip): 3 | Toxic deaths/No. mice treated (400 μg/mouse, 6 injections ip): 1/4

aspartyl-lysyl-daunomycin [Asp-Lys-DM]
Long time survivors (over 60 days) (600 μg/mouse, 8 injections ip): 6 | Toxic deaths/No. mice treated (600 μg/mouse, 8 injections ip): 0/8 | Median survival time (600 μg/mouse, 8 injections ip): 31 | Relative effectivity among derivatives: more effective than aspartyl-daunomycin | Antitumor (curing) effect in words: complete cure, or a significantly prolonged life span with no apparent toxic effects

lysyl-daunomycin [Lys-DM]
Long time survivors (over 60 days) (200 μg/mouse, 4 injections ip): 0 | Toxic deaths/No. mice treated (200 μg/mouse, 4 injections ip): 0/8 | Median survival time (200 μg/mouse, 4 injections ip): 28 | Long time survivors (over 60 days) (250 μg/mouse, 8 injections ip): 5 | Toxic deaths/No. mice treated (250 μg/mouse, 8 injections ip): 2/8 | Median survival time (250 μg/mouse, 8 injections ip): 26 | Antitumor (curing) effect in words: complete cure, or a significantly prolonged life span with no apparent toxic effects

lysyl-leucyl-daunomycin
Relative effectivity among derivatives: more effective than leucyl-daunomycin
